pIC50: −log10 of the molar value.
Molecular target: P. falciparum apicoplast DNA polymerase (Pf-apPOL) (Plasmodium falciparum, UniProt Q8ILY1)
Test: Fluorescence-based high-throughput DNA polymerase assay (molecular beacon), primary screen and dose-response
Assay type: biochemical
Settings: for DNA Pol: 90 min, 10 µM
Method in brief: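 Single-point screening used 10 µM compound with 20 nM polymerase, 20 nM hairpin substrate and 6 µM dNTPs for 90 min at 25 °C. Confirmatory titrations (2.5–80 µM) followed fluorescence at three times, and IC50 was derived from a fit including a cooperativity term n.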

Chain of P. falciparum apicoplast DNA polymerase (Pf-apPOL) (Q8ILY1 entry or part of it): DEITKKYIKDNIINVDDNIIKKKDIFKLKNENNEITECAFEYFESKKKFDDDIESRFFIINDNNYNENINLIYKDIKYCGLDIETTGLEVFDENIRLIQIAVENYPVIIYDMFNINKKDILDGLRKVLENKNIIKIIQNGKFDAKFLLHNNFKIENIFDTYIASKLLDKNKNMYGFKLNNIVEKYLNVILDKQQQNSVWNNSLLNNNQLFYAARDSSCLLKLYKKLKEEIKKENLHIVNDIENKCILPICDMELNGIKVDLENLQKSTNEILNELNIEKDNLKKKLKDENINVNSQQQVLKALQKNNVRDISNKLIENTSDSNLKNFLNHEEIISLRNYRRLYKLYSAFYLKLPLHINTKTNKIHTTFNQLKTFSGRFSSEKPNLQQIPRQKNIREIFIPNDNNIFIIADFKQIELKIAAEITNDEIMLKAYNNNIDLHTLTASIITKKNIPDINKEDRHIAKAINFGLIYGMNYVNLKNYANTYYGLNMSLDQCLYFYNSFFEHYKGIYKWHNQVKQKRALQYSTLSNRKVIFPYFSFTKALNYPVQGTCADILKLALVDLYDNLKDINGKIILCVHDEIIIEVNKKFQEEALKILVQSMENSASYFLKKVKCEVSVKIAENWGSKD

## O=C(CSc1nc2ccccc2s1)Nc1ncc([N+](=O)[O-])s1 [KU0019667]
DRC-1, concentration 2.5
  % inhibition Apo pol 10': 10.9138%
  % inhibition Apol 90': 0.4185%
  % inhibition apPOL 180': -6.305%
DRC-1, concentration 5
  % inhibition Apo pol 10': 29.1635%
  % inhibition Apol 90': 12.4734%
  % inhibition apPOL 180': -0.1201%
DRC-1, concentration 10
  % inhibition Apo pol 10': 61.6987%
  % inhibition Apol 90': 42.9699%
  % inhibition apPOL 180': 24.654%
DRC-1, concentration 20
  % inhibition Apo pol 10': 83.6526%
  % inhibition Apol 90': 72.9689%
  % inhibition apPOL 180': 57.312%
DRC-1, concentration 40
  % inhibition Apo pol 10': 89.1806%
  % inhibition Apol 90': 86.0812%
  % inhibition apPOL 180': 80.0815%
DRC-1, concentration 80
  % inhibition Apo pol 10': 87.7336%
  % inhibition Apol 90': 87.9131%
  % inhibition apPOL 180': 84.5661%
DRC-2, concentration 2.5
  % inhibition Apo pol 5': 0.175%
  % inhibition Apol 40': -1.35%
  % inhibition ApPOL 90': -3%
  % inhibition apPOL 180': -13%
DRC-2, concentration 5
  % inhibition Apo pol 5': -22%
  % inhibition Apol 40': -10%
  % inhibition ApPOL 90': -10%
  % inhibition apPOL 180': -17%
DRC-2, concentration 10
  % inhibition Apo pol 5': -38%
  % inhibition Apol 40': -13%
  % inhibition ApPOL 90': -10%
  % inhibition apPOL 180': -18%
DRC-2, concentration 20
  % inhibition Apo pol 5': -73%
  % inhibition Apol 40': -32%
  % inhibition ApPOL 90': -23%
  % inhibition apPOL 180': -23%
DRC-2, concentration 40
  % inhibition Apo pol 5': -86%
  % inhibition Apol 40': -29%
  % inhibition ApPOL 90': -14%
  % inhibition apPOL 180': -7%
DRC-2, concentration 80
  % inhibition Apo pol 5': -130%
  % inhibition Apol 40': -70%
  % inhibition ApPOL 90': -45%
  % inhibition apPOL 180': -23%
conc. 2.5, DRC-2
  % inhibition apPOL 180': -13%
conc. 5, DRC-2
  % inhibition Apol 40': -10%
  % inhibition ApPOL 90': -10%
conc. 10, DRC-2
  % inhibition Apol 40': -13%
  % inhibition ApPOL 90': -10%
conc. 20, DRC-2
  % inhibition ApPOL 90': -23%
  % inhibition apPOL 180': -23%
conc. 80, DRC-2
  % inhibition apPOL 180': -23%
Primary screen value by plate and well
  DNA Pol: 67
Primary screen value of the 186 hits, unit not given
  DNA Pol: 67

## Cc1ccc(N2CCC(NC(=O)Cc3cccs3)C2=O)cc1C (stereo not drawn) [Molecule 57]
Supplemental file 2, sheet IC50 nontoxic compounds, Pf-apPOL
  pIC50: 4.54

## CC(C)CCNC(=O)c1cnn2c(O)cc(CSc3ccc(Cl)cc3)nc12 [Molecule 101, CC(CCNC(=O)c1cnn2c1nc(CSc1ccc(cc1)Cl)cc2O)C]
'DNA Pol' of the 186 hits list (screen value)
  DNA Pol: 47
DRC-1, conc 2.5
  % inhibition Apo pol 10': 0.1018%
  % inhibition Apol 90': -5.869%
  % inhibition apPOL 180': -11.3834%
DRC-1, conc 5
  % inhibition Apo pol 10': 10.5875%
  % inhibition Apol 90': 6.076%
  % inhibition apPOL 180': -2.604%
DRC-1, conc 10
  % inhibition Apo pol 10': 55.0331%
  % inhibition Apol 90': 52.4114%
  % inhibition apPOL 180': 39.1813%
DRC-1, conc 20
  % inhibition Apo pol 10': 79.7694%
  % inhibition Apol 90': 78.3109%
  % inhibition apPOL 180': 71.0945%
DRC-1, conc 40
  % inhibition Apo pol 10': 93.5546%
  % inhibition Apol 90': 89.1904%
  % inhibition apPOL 180': 85.4085%
DRC-1, conc 80
  % inhibition Apo pol 10': 97.7054%
  % inhibition Apol 90': 96.2635%
  % inhibition apPOL 180': 94.6304%
DRC-2, conc 2.5
  % inhibition Apo pol 5': -1.9%
  % inhibition Apol 40': -1.08%
  % inhibition ApPOL 90': -2.68%
  % inhibition apPOL 180': -4.21%
DRC-2, conc 5
  % inhibition Apo pol 5': 20%
  % inhibition Apol 40': 24%
  % inhibition ApPOL 90': 22%
  % inhibition apPOL 180': 16%
DRC-2, conc 10
  % inhibition Apo pol 5': 55%
  % inhibition Apol 40': 65%
  % inhibition ApPOL 90': 66%
  % inhibition apPOL 180': 60%
DRC-2, conc 20
  % inhibition Apo pol 5': 59%
  % inhibition Apol 40': 69%
  % inhibition ApPOL 90': 70%
  % inhibition apPOL 180': 66%
DRC-2, conc 40
  % inhibition Apo pol 5': 66%
  % inhibition Apol 40': 76%
  % inhibition ApPOL 90': 77%
  % inhibition apPOL 180': 75%
DRC-2, conc 80
  % inhibition Apo pol 5': 69%
  % inhibition Apol 40': 81%
  % inhibition ApPOL 90': 83%
  % inhibition apPOL 180': 85%
DRC-2, concentration 40
  % inhibition Apo pol 5': 66%
DRC-2, concentration 80
  % inhibition Apo pol 5': 69%
DRC-2, concentration 20
  % inhibition Apol 40': 69%
  % inhibition apPOL 180': 66%
DRC-2, concentration 10
  % inhibition ApPOL 90': 66%
Primary screen value, "DNA Pol"
  DNA Pol: 47

Source: PMC9090415, “Discovery of small molecule inhibitors of Plasmodium falciparum apicoplast DNA polymerase” (Journal of Enzyme Inhibition and Medicinal Chemistry, 2022)
